Results published in patent US6613931B1 (priority 1999, dated 2003).

Key:
[1] = system: Plasmopara viticola; test: Fungicidal action: activity against Plasmopara viticola on grapevines (persistency); assay type: in vivo; details: grapevines c.v. Müller-Thurgau, inoculated 7 days after spraying, undersides of leaves assessed visually, untreated control 90
Description: Activity Against Plasmopara viticola
Leaves of potted grapevines c.v. “Müller-Thurgau” were sprayed to run off point with an aqueous preparation of active compound which had been prepared using a stock solution comprising 10% of active compound, 63% of cyclohexanone and 27% of emulsifier. In order to be able to assess the persistency of the substances, the plants were kept for 7 days in a greenhouse after the spray coating had dried on. Only then were the leaves inoculated with an aqueous zoospore suspension of Plasmopara viticola. The grapevines were then initially kept in a water vapor-saturated chamber at 24° C. for 48 hours and then in a greenhouse at 20 and 30° C. for 5 days. After this period of time, the plants were once more kept in a humid chamber for 16 hours to promote sporangiophore eruption. The extent of the infection on the undersides of the leaves was then determined visually.

[2] = system: Lemna paucicostata; test: Herbicidal action: growth inhibition of duck weed (Lemna); assay type: in vivo; details: Lemna aequinoctialis, increase in leaf area after 8-10 days, 25° C., permanent light, read-out: Growth inhibition (% relative to the control)
Protocol: The herbicidal action of the compounds according to the invention is investigated using the representative test model below. The effect of the test substances on the growth of duck weed is determined by the following method:
The duct weed Lemna paucicostata was grown under sterile conditions and 250 ml glass vessels containing 100 ml of inorganic nutrient solution and supplemented with 1% sucrose, as described by Grossmann et al., Pesticide Science 35, (1992), 283-289. At the beginning of the test, 150 μl of a solution of active compound in acetone (stock solution: 100-fold concentrated) were pipetted into Petri dishes (diameter 6 cm, height 1.5 cm; Greiner, Frickenhausen) containing 15 ml of nutrient solution. (without added sucrose). Only the solvent component of the active compound solution was added to the nutrient solution for the control tests. Then, 4 Lemna plants were introduced into each dish, the dishes were covered with lids and incubated under permanent light conditions at 25° C. After 8-10 days, the increase in leaf area was determined using an imaging apparatus (Imago, Compulog Computer Syst., Böblingen) as growth parameter, and this was used to calculate the growth inhibition as a percentage relative to the control.

N#CC(C(=O)Nc1cccc(Cl)c1)c1ccccc1 (stereo not shown) [No. 2, N-(3-chlorophenyl)-2-cyano-2-phenylacetamide]
% infection of the leaves after application of an aqueous preparation containing 250 ppm of active compound [1]: 0%

N#CC(C(=O)Nc1ccc(Cl)c(Cl)c1)c1ccccc1 (stereo not shown) [A, N-(3,4-dichlorophenyl)-2-cyano-2-phenylacetamide]
inhibition at 1 µM ([2]; concentration 1 μmolar): 40%
inhibition at 10 µM ([2]; concentration 10 μmolar): 93%
inhibition at 100 µM ([2]; concentration 100 μmolar): 100%
